The conditions of series [1]: ion pair with chloride; cited from earlier work.
A short description of series [2]: Calculation of chloride binding by cations of clay/silver wound dressing in wound exudate. In kind it is physicochemical. The note with it: without the chelation of chloride provided by the medicinal clay. The text has this:
Medicinal clay in a pharmaceutical composition was applied to an exemplary wound dressing, which incorporated an additional therapeutic cation, silver. Wound exudate is known to contain anions, which can interfere with the medicinal qualities of the medicinal clay and additional therapeutic agents when the medicinal clay comes into contact with the moisture of the wound exudate (a water source). Wound exudate is variable patient to patient, so an average amount of 101 mEq/L chloride anions was used. The medicinal clay of Example 1 was analyzed for cations, which may interact with the chloride in wound exudate. Table 5 describes an approximate amount of ions present the exemplary clay composition of the wound dressing (4×4 inch pad), silver added into the wound dressing for delivery with the clay, and wound exudate, as well as the amount of each in the exemplary wound dressing and wound exudate (grams). […] A skilled artisan will appreciate from the disclosure of the calculations that such a minimum effective amount can vary based on an exudate sample. Accordingly, the calculated atoms and weight (g) in Table 5 can have a variation of about ±30%, ±25%, ±20%, ±15%, or ±10%. The exemplary wound dressings comprise from about 0.1 to about 2.5 grams of the clay composition, preferably from about 0.2 to about 0.8 grams of the clay composition. […]

On to `[Cl][Ag]` [AgCl], for which, in series [1], the “Lattice Energy” value is 187 kcal/mol.

For `[Ca+2].[Cl-].[Cl-]` [CaCl2], the “Lattice Energy” value in series [1] was 542.1 kcal/mol.

Turning to `[Cl-].[Na+]` [NaCl], the “Lattice Energy” value in series [1] is 184 kcal/mol.

For the molecule `[Cl][Fe][Cl]` [FeCl2], the “Lattice Energy” value in series [1] was 614 kcal/mol.

In the case of `[Cl][Fe]([Cl])[Cl]` [FeCl3], the “Lattice Energy” value in series [1] was 1282 kcal/mol.

With `[Cl-].[K+]` [KCl], the “Lattice Energy” value in series [1] was 168 kcal/mol.

In the case of `[Cl][Mn][Cl]` [MnCl2], the “Lattice Energy” value in series [1] is 599.9 kcal/mol.

For `[Ag+]` [silver], in series [2], the “silver in the dressing that chloride could bind prior to release” value was 72%.

As for `[Cl-].[Cl-].[Mg+2]` [MgCl2], the “Lattice Energy” value in series [1] was 592 kcal/mol.

For `[Cl][Al]([Cl])[Cl]` [AlCl3], the “Lattice Energy” value in series [1] was 1228 kcal/mol.

The record behind these values is patent US12213993B2, “Coated medicinal clay compositions, pharmaceutical compositions, and delivery of cation sources and methods of use thereof” (priority 2021, dated 2025).
